Test results published in patent publication US5358951A, “Angiotensin II receptor blocking 2, 3, 6 substituted quinazolinones” (American Cyanamid Company, priority 1993, dated 1994).
Counter-ions that a name gives are not always drawn.

System: vasopressor response of angiotensin II
Assay: AII Challenge: antagonism of angiotensin II vasopressor response
Assay type: in vivo
Conditions: for inhibition in vivo at 0.5 mg/kg: 0.5 mg/kg i.v.; for inhibition in vivo at 0.3 mg/kg: 0.3 mg/kg i.v.
In short: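 Percent antagonism is based on the systolic blood pressure rise (mmHg) to i.v. angiotensin II at 0.05 and 0.1 ug/kg. Each rat's own predose response was taken as 100%. Challenges were repeated from 30 to 300 min after i.v., i.p. or oral compound in cannulated conscious male SHR, 16-20 weeks old.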

[1] = 1 mg/kg P.O., AII 0.05 mcg/kg IV, 30 min post dose, sodium salt
[2] = 1 mg/kg P.O., AII 0.05 mcg/kg IV, 90 min post dose, sodium salt
[3] = 1 mg/kg P.O., AII 0.05 mcg/kg IV, 180 min post dose, sodium salt
[4] = 1 mg/kg P.O., AII 0.05 mcg/kg IV, 240 min post dose, sodium salt
[5] = 1 mg/kg P.O., AII 0.1 mcg/kg IV, 30 min post dose, sodium salt
[6] = 1 mg/kg P.O., AII 0.1 mcg/kg IV, 240 min post dose, sodium salt
[7] = Rattus norvegicus, iv, […], AII 0.1 mcg/kg IV, 90 min post dose

`CCCCc1nc2ccc([C@@]3(C)C[C@@H]4CCCN4O3)cc2c(=O)n1Cc1ccc(-c2ccccc2-c2nnn[nH]2)cc1` (relative stereo) [Example 73, Cis-2-Butyl-6-(hexahydro-2-methylpyrrolo[1,2-b]isoxazol-2-yl)-3-[[2'-(1H-(tetrazol-5-yl)[1,1'-biphenyl-4-yl]methyl]-4(3H)-quinazolinone sodium salt] was tested, and the “% Inhibition” value [1] was 31%, the “Response Average Change” value [1] was 22.5 mmHg and the “Response Average Change” value (1 mg/kg P.O., AII 0.05 mcg/kg IV, 60 min post dose, sodium salt) was 12.5 mmHg. For the same molecule, the “% Inhibition” value [2] was 38%, the “Response Average Change” value [2] was 20 mmHg and the “Response Average Change” value (1 mg/kg P.O., AII 0.05 mcg/kg IV, 120 min post dose, sodium salt) was 12.5 mmHg. The “% Inhibition” value [3] was 23%, the “Response Average Change” value [3] was 25 mmHg and the “% Inhibition” value [4] was 15%. The “Response Average Change” value [4] was 27.5 mmHg, the “Response Average Change” value (1 mg/kg P.O., AII 0.05 mcg/kg IV, 300 min post dose) was 25 mmHg and the “% Inhibition” value [5] was 27%. The “Response Average Change” value [5] was 27.5 mmHg, the “Response Average Change” value (1 mg/kg P.O., AII 0.1 mcg/kg IV, 60 min post dose, sodium salt) was 20 mmHg and the “Response Average Change” value (1 mg/kg P.O., AII 0.1 mcg/kg IV, 90 min post dose, sodium salt) was 22.5 mmHg. The “Response Average Change” value (1 mg/kg P.O., AII 0.1 mcg/kg IV, 120 min post dose) was 22.5 mmHg, the “Response Average Change” value (1 mg/kg P.O., AII 0.1 mcg/kg IV, 180 min post dose, sodium salt) was 22.5 mmHg and the “% Inhibition” value [6] was 33%. The “Response Average Change” value [6] was 25 mmHg, the “Response Average Change” value (1 mg/kg P.O., AII 0.1 mcg/kg IV, 300 min post dose) was 22.5 mmHg and the “% Inhibition” value (1 mg/kg i.v., AII 0.05 mcg/kg IV, 60 min post dose) was 83%. The inhibition in vivo at 0.5 mg/kg (Rattus norvegicus, iv, 0.5 h, AII 0.05 mcg/kg IV, 30 min post dose) was 73%, the inhibition in vivo at 0.5 mg/kg (Rattus norvegicus, iv, 0.5 h, AII 0.1 mcg/kg IV, 30 min post dose) was 67% and the inhibition in vivo at 1 mg/kg (Rattus norvegicus, iv, 0.5 h, 1 mg/kg i.v., AII 0.05 mcg/kg IV, 30 min post dose) was 83%. For the same molecule, the inhibition in vivo at 1 mg/kg (Rattus norvegicus, iv, 0.5 h, 1 mg/kg i.v., AII 0.1 mcg/kg IV, 30 min post dose) was 74%, the inhibition in vivo at 0.1 mg/kg (Rattus norvegicus, iv, 1 h, 0.1 mg/kg i.v., AII 0.05 mcg/kg IV, 60 min post dose) was 40% and the inhibition in vivo at 0.3 mg/kg (Rattus norvegicus, iv, 1 h, AII 0.1 mcg/kg IV, 60 min post dose) was 25%. The inhibition in vivo at 0.5 mg/kg (Rattus norvegicus, iv, 1 h, AII 0.05 mcg/kg IV, 60 min post dose) was 71%, the inhibition in vivo at 1 mg/kg (Rattus norvegicus, iv, 1 h, 1 mg/kg i.v., AII 0.05 mcg/kg IV, 60 min post dose) was 83% and the inhibition in vivo at 1 mg/kg (Rattus norvegicus, iv, 1 h, 1 mg/kg i.v., AII 0.1 mcg/kg IV, 60 min post dose) was 65%. It also gave an inhibition in vivo at 0.3 mg/kg (Rattus norvegicus, iv, 2 h, AII 0.05 mcg/kg IV, 120 min post dose) of 41%, an inhibition in vivo at 0.3 mg/kg (Rattus norvegicus, iv, 2 h, AII 0.1 mcg/kg IV, 120 min post dose) of 38% and an inhibition in vivo at 1 mg/kg (Rattus norvegicus, iv, 2 h, 1 mg/kg i.v., AII 0.05 mcg/kg IV, 120 min post dose) of 83%. The inhibition in vivo at 1 mg/kg (Rattus norvegicus, iv, 2 h, 1 mg/kg i.v., AII 0.1 mcg/kg IV, 120 min post dose) was 86%, the inhibition in vivo at 0.3 mg/kg (Rattus norvegicus, iv, 3 h, AII 0.05 mcg/kg IV, 180 min post dose) was 36% and the inhibition in vivo at 1 mg/kg (Rattus norvegicus, iv, 3 h, 1 mg/kg i.v., AII 0.05 mcg/kg IV, 180 min post dose) was 72%. It also gave an inhibition in vivo at 1 mg/kg (Rattus norvegicus, iv, 3 h, 1 mg/kg i.v., AII 0.1 mcg/kg IV, 180 min post dose) of 42%, an inhibition in vivo at 0.3 mg/kg (Rattus norvegicus, iv, 4 h, AII 0.05 mcg/kg IV, 240 min post dose) of 23% and an inhibition in vivo at 0.5 mg/kg (Rattus norvegicus, iv, 4 h, AII 0.1 mcg/kg IV, 240 min post dose) of 39%. It also gave an inhibition in vivo at 1 mg/kg (Rattus norvegicus, iv, 4 h, 1 mg/kg i.v., AII 0.1 mcg/kg IV, 240 min post dose) of 74%, an inhibition in vivo at 1 mg/kg (Rattus norvegicus, iv, 5 h, 1 mg/kg i.v., AII 0.05 mcg/kg IV, 300 min post dose) of 50% and an inhibition in vivo at 1 mg/kg (Rattus norvegicus, iv, 5 h, 1 mg/kg i.v., AII 0.1 mcg/kg IV, 300 min post dose) of 60%. It also gave an inhibition in vivo at 0.3 mg/kg (Rattus norvegicus, iv, […], AII 0.05 mcg/kg IV, 90 min post dose) of 48%, an inhibition in vivo at 0.3 mg/kg [7] of 29% and an inhibition in vivo at 0.5 mg/kg [7] of 50%. It also gave an inhibition in vivo at 1 mg/kg (Rattus norvegicus, iv, […], 1 mg/kg i.v., AII 0.05 mcg/kg IV, 90 min post dose) of 83%, an inhibition in vivo at 1 mg/kg (Rattus norvegicus, iv, […], 1 mg/kg i.v., AII 0.1 mcg/kg IV, 90 min post dose) of 79% and an inhibition in vivo at 1 mg/kg (Rattus norvegicus, po, 1 h, 1 mg/kg P.O., AII 0.05 mcg/kg IV, 60 min post dose) of 62%. The inhibition in vivo at 1 mg/kg (Rattus norvegicus, po, 1 h, 1 mg/kg P.O., AII 0.1 mcg/kg IV, 60 min post dose) was 47%, the inhibition in vivo at 1 mg/kg (Rattus norvegicus, po, 2 h, 1 mg/kg P.O., AII 0.05 mcg/kg IV, 120 min post dose) was 62% and the inhibition in vivo at 1 mg/kg (Rattus norvegicus, po, 2 h, 1 mg/kg P.O., AII 0.1 mcg/kg IV, 120 min post dose) was 40%. The inhibition in vivo at 1 mg/kg (Rattus norvegicus, po, 3 h, 1 mg/kg P.O., AII 0.1 mcg/kg IV, 180 min post dose) was 40%, the inhibition in vivo at 1 mg/kg (Rattus norvegicus, po, 5 h, 1 mg/kg P.O., AII 0.05 mcg/kg IV, 300 min post dose) was 23% and the inhibition in vivo at 1 mg/kg (Rattus norvegicus, po, 5 h, 1 mg/kg P.O., AII 0.1 mcg/kg IV, 300 min post dose) was 40%. For the same molecule, the inhibition in vivo at 1 mg/kg (Rattus norvegicus, po, […], 1 mg/kg P.O., AII 0.1 mcg/kg IV, 90 min post dose) was 40%.
